Test results as given in patent US20080206322A1, “Pharmaceutical Multiparticulate Composit Ion Comprising Mycophenolic Acid or Myco Phenolate Sodium and Combination Compositions with Rapamycin” (NOVARTIS AG, priority 2004, published 2008).
Where two headings read alike, the source gives them in different places.

Assay: Solubility in acidic medium
Type: physicochemical

COc1c(C)c2c(c(O)c1C/C=C(\C)CCC(=O)O)C(=O)OC2 [mycophenolic acid]
solubility in acidic medium: low solubility | solubility in acidic medium (listed as MPA): poor solubility
